Laboratory results reported in the NIST ThermoML archive (doi:10.1016/j.jct.2018.11.020).
Numbers after ± are expanded uncertainties.

Assays:
[1] = 101.33 kPa, Liquid; for viscosity: Concentric cylinders viscometry; for mass density: Vibrating tube method
[2] = refractive index (Na D-line) (dimensionless); conditions: 101.33 kPa, Liquid, Standard Abbe refractometry

| Compound | viscosity ([1]; 288.15 K) [mPa·s] | mass density ([1]; 288.15 K) [kg/m3] | viscosity ([1]; 293.15 K) [mPa·s] | mass density ([1]; 293.15 K) [kg/m3] | viscosity ([1]; 298.15 K) [mPa·s] | mass density ([1]; 298.15 K) [kg/m3] | viscosity ([1]; 303.15 K) [mPa·s] | mass density ([1]; 303.15 K) [kg/m3] | viscosity ([1]; 308.15 K) [mPa·s] | mass density ([1]; 308.15 K) [kg/m3] | viscosity ([1]; 313.15 K) [mPa·s] | mass density ([1]; 313.15 K) [kg/m3] | viscosity ([1]; 318.15 K) [mPa·s] | mass density ([1]; 318.15 K) [kg/m3] | viscosity ([1]; 323.15 K) [mPa·s] | mass density ([1]; 323.15 K) [kg/m3] | viscosity ([1]; 328.15 K) [mPa·s] | mass density ([1]; 328.15 K) [kg/m3] | viscosity ([1]; 333.15 K) [mPa·s] | mass density ([1]; 333.15 K) [kg/m3] | further results |
| --- | --- | --- | --- | --- | --- | --- | --- | --- | --- | --- | --- | --- | --- | --- | --- | --- | --- | --- | --- | --- | --- |
| Cc1ccccc1C [1,2-dimethylbenzene] | 0.869 ± 0.019 | 883.91 ± 1 | 0.8175 ± 0.018 | 879.72 ± 1 | 0.7661 ± 0.017 | 875.51 ± 1 | 0.722 ± 0.016 | 871.3 ± 1 | 0.6809 ± 0.015 | 867.07 ± 1 | 0.6437 ± 0.014 | 862.83 ± 1 | 0.608 ± 0.014 | 858.57 ± 1 | 0.5757 ± 0.013 | 854.3 ± 1 | 0.5458 ± 0.012 | 850.01 ± 1 | 0.5221 ± 0.012 | 845.71 ± 1 | refractive index ([2]; 288.15 K): 1.50706 ± 0.0004; refractive index ([2]; 293.15 K): 1.5044 ± 0.0004; refractive index ([2]; 298.15 K): 1.50173 ± 0.0004; refractive index ([2]; 303.15 K): 1.49906 ± 0.0004; refractive index ([2]; 308.15 K): 1.49644 ± 0.0004; refractive index ([2]; 313.15 K): 1.49383 ± 0.0004; refractive index ([2]; 318.15 K): 1.49124 ± 0.0004; refractive index ([2]; 323.15 K): 1.48869 ± 0.0004; refractive index ([2]; 328.15 K): 1.48604 ± 0.0004; refractive index ([2]; 333.15 K): 1.48345 ± 0.0004 |
| Cc1cccc(C)c1 [1,3-dimethylbenzene] | 0.6601 ± 0.015 | 868.56 ± 1 | 0.6322 ± 0.014 | 864.27 ± 1 | 0.5969 ± 0.013 | 859.98 ± 1 | 0.5674 ± 0.013 | 855.68 ± 1 | 0.5396 ± 0.012 | 851.36 ± 1 | 0.5112 ± 0.012 | 847.03 ± 1 | 0.4888 ± 0.011 | 842.69 ± 1 | 0.4657 ± 0.011 | 838.33 ± 1 | 0.4439 ± 0.01 | 833.95 ± 1 | 0.4273 ± 0.01 | 829.56 ± 1 | refractive index ([2]; 288.15 K): 1.49868 ± 0.0004; refractive index ([2]; 293.15 K): 1.49604 ± 0.0004; refractive index ([2]; 298.15 K): 1.49339 ± 0.0004; refractive index ([2]; 303.15 K): 1.49074 ± 0.0004; refractive index ([2]; 308.15 K): 1.4881 ± 0.0004; refractive index ([2]; 313.15 K): 1.48545 ± 0.0004; refractive index ([2]; 318.15 K): 1.4828 ± 0.0004; refractive index ([2]; 323.15 K): 1.48017 ± 0.0004; refractive index ([2]; 328.15 K): 1.47757 ± 0.0004; refractive index ([2]; 333.15 K): 1.47489 ± 0.0004 |
| Cc1ccc(C)cc1 [1,4-dimethylbenzene] | 0.6862 ± 0.015 | 865.31 ± 1 | 0.6515 ± 0.015 | 860.97 ± 1 | 0.6168 ± 0.014 | 856.63 ± 1 | 0.5848 ± 0.013 | 852.27 ± 1 | 0.5548 ± 0.013 | 847.91 ± 1 | 0.5247 ± 0.012 | 843.53 ± 1 | 0.5001 ± 0.011 | 839.14 ± 1 | 0.4753 ± 0.011 | 834.74 ± 1 | 0.4521 ± 0.01 | 830.32 ± 1 | 0.4342 ± 0.01 | 825.88 ± 1 | refractive index ([2]; 288.15 K): 1.4977 ± 0.0004; refractive index ([2]; 293.15 K): 1.49493 ± 0.0004; refractive index ([2]; 298.15 K): 1.49221 ± 0.0004; refractive index ([2]; 303.15 K): 1.48939 ± 0.0004; refractive index ([2]; 308.15 K): 1.48658 ± 0.0004; refractive index ([2]; 313.15 K): 1.48391 ± 0.0004; refractive index ([2]; 318.15 K): 1.48126 ± 0.0004; refractive index ([2]; 323.15 K): 1.47853 ± 0.0004; refractive index ([2]; 328.15 K): 1.47608 ± 0.0004; refractive index ([2]; 333.15 K): 1.47328 ± 0.0004 |
| Cc1ccccc1 [toluene] | 0.6284 ± 0.014 | 871.5 ± 1 | 0.5926 ± 0.013 | 866.84 ± 1 | 0.5698 ± 0.013 | 862.18 ± 1 | 0.541 ± 0.012 | 857.51 ± 1 | 0.514 ± 0.011 | 852.83 ± 1 | 0.4854 ± 0.011 | 848.15 ± 1 | 0.4646 ± 0.01 | 843.44 ± 1 | 0.4421 ± 0.01 | 838.73 ± 1 | 0.4209 ± 0.0097 | 834 ± 1 | 0.4035 ± 0.0094 | 829.25 ± 1 | refractive index ([2]; 288.15 K): 1.49921 ± 0.00036; refractive index ([2]; 293.15 K): 1.49631 ± 0.00036; refractive index ([2]; 298.15 K): 1.49338 ± 0.00036; refractive index ([2]; 303.15 K): 1.49042 ± 0.00036; refractive index ([2]; 308.15 K): 1.48751 ± 0.00036; refractive index ([2]; 313.15 K): 1.48461 ± 0.00036; refractive index ([2]; 318.15 K): 1.48171 ± 0.00036; refractive index ([2]; 323.15 K): 1.47889 ± 0.00036; refractive index ([2]; 328.15 K): 1.47596 ± 0.00036; refractive index ([2]; 333.15 K): 1.47305 ± 0.00036 |
